Experimental data published in patent US7807663B2, “Therapeutic agents for diabetes” (Ajinomoto Co., Inc., priority 2003, dated 2010).

Columns and labels:
[1] = system: GK rats; experiment: Combinational effect with insulin secretagogue (gliclazide) using GK rats (Example 2); format: in vivo; conditions: combined with gliclazide, compared with alone groups, same experiment as Example 1
Protocol: The compound (II) (100 mg/kg) was orally administered to C57BL/6NCrj mice (11 week age, male) and soon after that, gliclazide (3 mg/kg) was orally administered. After administration, the blood was taken from their caudal veins over time to determine the blood glucose level. Area under the curve of blood glucose level changes until 70 minutes after the administration was set as an index and variations from a control group (Vehicle administered group) were compared.
The same experiment is conducted as that of Example 1 except that the compounds of the Compound Nos. 6, 8, 62, 80, 81, 88, 91, […], 105, 106, 129, 130, 131 and 132 in Tables 1 and 2 are used instead of the compound (II), and GK rats are used instead of normal mice.

[2] = system: C57BL/KsJ-db/bdJcl mice; experiment: Combinational effect with glitazone (pioglitazone) using db/db mice, oral glucose load (Examples 5 and 6); format: in vivo; conditions: single oral administration combined with pioglitazone 10 mg/kg/day oral for 10 days, compared with alone groups
Protocol: The oral glucose load experiments are conducted using C57BL/KsJ-db/bdJcl mice in the conditions with or without the oral administeration of pioglitazone (10 mg/kg/day) for 10 days and with or without a single oral administration of the compound (III).
The same experiment is conducted as that of Example 5 except that the compounds of the Compound Nos. 6, 8, 62, 80, 81, 88, 91, 96, 105, 106, 129, 130, 131 and 132 in Tables 1 and 2 are used instead of the compound (III).

[3] = system: C57BL/KsJ-db/bdJcl mice; experiment: Combinational effect with insulin using db/db mice (Examples 7 and 8); format: in vivo; conditions: combined with insulin 0.2 U/kg, compared with alone groups, same experiment as Example 3
Protocol: The compound (III) (30 mg/kg) was orally administered to C57BL/KsJ-db/bdJcl mice (10 week age, male) and soon after that, metformin (100 mg/kg) was orally administered. 60 minutes after administration, the blood was taken from their caudal veins to determine the blood glucose level. The same experiment is conducted as that of Example 3 except that insulin (0.2 U/kg) is used instead of metformin. […] The same experiment is conducted as that of Example 7 except that the compounds of the Compound Nos. 6, 8, 62, 80, 81, 88, 91, 96, 105, 106, 129, 130, 131 and 132 in Tables 1 and 2 are used instead of the compound (III).

[4] = system: adipose cells of rats; experiment: Evaluation of the sugar transportation activity (2-[14C(U)]-deoxy-D-glucose incorporation); format: cell-based, Wistar rats; conditions: concentration with reinforcing effect of 50% of that of insulin (100 nM) = 100%; rat adipose cells, 30 min pre-culture at 37° C., 5 min uptake
Protocol: 1. Preparation of Adipose Cells of Rats:
After the decapitation and venesection of 6 male Wistar rats (body weight: 150 to 200 g), an incision was made in the abdomen of each rat to extract 6 g in total of epididymal adipose tissues. The tissues were finely cut into 2 mm×2 mm pieces in 6 ml of KRH (Krebs-Ringer Hepes, composition: 130 mM of sodium chloride, 4.7 mM of potassium chloride, 1.2 mM of potassium dihydrogenphosphate, 1.2 mM of magnesium sulfate, 1 mM of calcium chloride and 25 mM of Hepes, pH=7.6) containing 5% of BSA (bovine serum albumin). 24 mg of collagenase (type I) was added thereto and the digestion treatment was conducted for about 40 minutes to obtain about 6 ml of isolated adipose cells. The collagenase was removed by the buffer exchange. 2% BSA/KRH solution was added to the residue for the re-suspension to obtain 45 ml of an adipose cell suspension.
2. Evaluation of the Sugar Transportation Activity:
The sugar transportation activity of the compound (I) of the present invention was evaluated with reference to a method described in a literature [Annual Review of Biochemistry, Vol. 55, p. 1059 (1986)]. In the test, 200 μL of the adipose cell suspension was poured in each polystyrene test tube, 100 μL of the solution of the test substance (by dilution of 10 mg/mL dimethyl sulfoxide solution with KRH) was added thereto, and the obtained mixture was shaken and then cultured at 37° C. for 30 minutes. The sugar transportation activity was evaluated by measuring the quantity of 2-[^14C(U)]-deoxy-D-glucose incorporated per a unit time. Namely, 2-[^14C(U)]-deoxy-D-glucose was added to the adipose cell suspension after the pre-culture (the final concentration: 0.5 μCi/sample). 5 minutes after, cytochalasin B (final concentration: 10 μM) was added to the mixture to terminate the sugar transportation. After forming a dinonyl phthalate layer, the obtained mixture was centrifuged to separate the adipose cells from the buffer. The quantity of 2-[^14C(U)]-deoxy-D-glucose contained in the adipose cell layer was determined with a liquid scintillation counter to determine the quantity of the incorporated sugar. In this evaluation system, when insulin (100 nM) having the effect of reinforcing the sugar transportation was used, the effect was about 7 times as high as that obtained in the insulin-free control group.
The results of the evaluation of the sugar transportation activity obtained by using 100 μg/mL of the compound (I) of the present invention are shown in Table 3. The sugar transportation activity in Table 3 was evaluated on the basis of the reinforcing effect of insulin (100 nM). The sugar transportation activity A in Table 3 was determined in terms of the concentration (EC50: μg/mL) of a test compound, having a reinforcing effect corresponding to 50% on the basis of the reinforcing effect of insulin (100 nM) having a reinforcing effect of 100%.
The symbols in Table 3 are as follows: • No: Compound No. in Tables 1 and 2, and • A: sugar transportation activity.

[5] = system: KK-Ay mice; experiment: Combinational effect with biguanide (metformin) using KK-Ay mice (Example 4); format: in vivo; conditions: combined with metformin, compared with alone groups, same experiment as Example 3
Protocol: The compound (III) (30 mg/kg) was orally administered to C57BL/KsJ-db/bdJcl mice (10 week age, male) and soon after that, metformin (100 mg/kg) was orally administered. 60 minutes after administration, the blood was taken from their caudal veins to determine the blood glucose level.
The same experiment is conducted as that of Example 3 except that the compounds of the Compound Nos. 6, 8, 62, 80, 81, 88, 91, 96, 105, 106, 129, 130, 131 and 132 in Tables 1 and 2 are used instead of the compound (III), and KK-Ay mice are used instead of db/bd mice.

A: sugar transportation activity (EC50) [4]	SMILES	hypoglycemic action (blood glucose level) [1]	hypoglycemic action (oral glucose load) [2]	hypoglycemic action (blood glucose level) [3]	hypoglycemic action (blood glucose level) [5]
2 µg/mL	COc1ccccc1[C@@H]1C2=C(CNC2=O)N[C@@H]2CCCC[C@H]2N1C(=O)CO [Compound 8]	remarkable hypoglycemic action	remarkable hypoglycemic action	remarkable hypoglycemic action	remarkable hypoglycemic action
0.5 µg/mL	O=C1NCC2=C1[C@@H](c1ccccc1OC1CC1)N(C(=O)CO)[C@@H]1CCCC[C@H]1N2 [Compound 62]	remarkable hypoglycemic action	remarkable hypoglycemic action	remarkable hypoglycemic action	remarkable hypoglycemic action
5 µg/mL	CSc1ccccc1[C@@H]1C2=C(CNC2=O)N[C@@H]2CCCC[C@H]2N1C(C)=O [Compound 80]	remarkable hypoglycemic action	remarkable hypoglycemic action	remarkable hypoglycemic action	remarkable hypoglycemic action
2 µg/mL	CSc1ccccc1[C@@H]1C2=C(CNC2=O)N[C@@H]2CCCC[C@H]2N1C(=O)CO [Compound 81]	remarkable hypoglycemic action	remarkable hypoglycemic action	remarkable hypoglycemic action	remarkable hypoglycemic action
1.5 µg/mL	O=C1NCC2=C1[C@@H](c1ccccc1)N(C(=O)CO)[C@@H]1CCCC[C@H]1N2 [Compound 131]	remarkable hypoglycemic action	remarkable hypoglycemic action	remarkable hypoglycemic action	remarkable hypoglycemic action

More lines, now with the values behind:

SMILES	A: sugar transportation activity (EC50) [4]	hypoglycemic action (blood glucose level) [1]	hypoglycemic action (oral glucose load) [2]	hypoglycemic action (blood glucose level) [3]	hypoglycemic action (blood glucose level) [5]
COc1ccccc1[C@@H]1C2=C(CNC2=O)N[C@@H]2CCCC[C@H]2N1C(=O)CC(F)(F)F [Compound 6]	0.47 µg/mL	remarkable hypoglycemic action	remarkable hypoglycemic action	remarkable hypoglycemic action	remarkable hypoglycemic action
CC(=O)N1[C@@H]2CCCC[C@H]2NC2=C(C(=O)NC2)[C@H]1c1ccccc1C [Compound 88]	5 µg/mL	remarkable hypoglycemic action	remarkable hypoglycemic action	remarkable hypoglycemic action	remarkable hypoglycemic action
CCC(=O)N1[C@@H]2CCCC[C@H]2N(C)C2=C(C(=O)NC2)[C@H]1c1ccccc1C [Compound 91]	0.45 µg/mL	remarkable hypoglycemic action	remarkable hypoglycemic action	remarkable hypoglycemic action	remarkable hypoglycemic action
CC(=O)N1[C@@H]2CCCC[C@H]2NC2=C(C(=O)NC2)[C@H]1c1ccccc1C1CC1 [Compound 105]	0.5 µg/mL	remarkable hypoglycemic action	remarkable hypoglycemic action	remarkable hypoglycemic action	remarkable hypoglycemic action
CCC(=O)N1[C@@H]2CCCC[C@H]2NC2=C(C(=O)NC2)[C@H]1c1cccc(F)c1C [Compound 106]	0.6 µg/mL	remarkable hypoglycemic action	remarkable hypoglycemic action	remarkable hypoglycemic action	remarkable hypoglycemic action
CC(=O)N1[C@@H]2CCCC[C@H]2NC2=C(C(=O)NC2)[C@H]1c1ccccc1 [Compound 129]		remarkable hypoglycemic action	remarkable hypoglycemic action	remarkable hypoglycemic action	remarkable hypoglycemic action
CCC(=O)N1[C@@H]2CCCC[C@H]2NC2=C(C(=O)NC2)[C@H]1c1ccccc1 [Compound 130]	1.5 µg/mL	remarkable hypoglycemic action	remarkable hypoglycemic action	remarkable hypoglycemic action	remarkable hypoglycemic action
CCOCC(=O)N1[C@@H]2CCCC[C@H]2NC2=C(C(=O)NC2)[C@H]1c1ccccc1 [Compound 132]	2.7 µg/mL	remarkable hypoglycemic action	remarkable hypoglycemic action	remarkable hypoglycemic action	remarkable hypoglycemic action
